Data published in PubChem BioAssay (NCI).
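Each compound was tested at five concentrations against cells in 96-well plates for 48 hours. TGI marks complete inhibition of growth.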

How the values were obtained:
Assay in all cases: NCI tumour cell line growth inhibition, 48 h
UACC-62 melanoma = system: UACC-62 melanoma
SF-539 CNS = system: SF-539 CNS
T-47D breast = system: T-47D breast
K-562 leukemia = system: K-562 leukemia
SK-MEL-2 melanoma = system: SK-MEL-2 melanoma
HT29 colon = system: HT29 colon
786-0 renal = system: 786-0 renal
CAKI-1 renal = system: CAKI-1 renal
SF-295 CNS = system: SF-295 CNS
SW-620 colon = system: SW-620 colon
IGROV1 ovarian = system: IGROV1 ovarian
MDA-MB-435 = system: MDA-MB-435
NCI/ADR-RES ovarian = system: NCI/ADR-RES ovarian
SK-MEL-5 melanoma = system: SK-MEL-5 melanoma
PC-3 prostate = system: PC-3 prostate
MOLT-4 leukemia = system: MOLT-4 leukemia
EKVX NSCLC = system: EKVX NSCLC
HCT-116 colon = system: HCT-116 colon
NCI-H460 lung = system: NCI-H460 lung
A498 renal = system: A498 renal
UACC-257 melanoma = system: UACC-257 melanoma
OVCAR-8 ovarian = system: OVCAR-8 ovarian
HL-60(TB) leukemia = system: HL-60(TB) leukemia
HCC-2998 colon = system: HCC-2998 colon
HOP-62 NSCLC = system: HOP-62 NSCLC
MALME-3M melanoma = system: MALME-3M melanoma
SN12C renal = system: SN12C renal
SF-268 CNS = system: SF-268 CNS
SNB-75 CNS = system: SNB-75 CNS
HOP-92 NSCLC = system: HOP-92 NSCLC
COLO 205 colon = system: COLO 205 colon
NCI-H23 lung = system: NCI-H23 lung
SK-OV-3 ovarian = system: SK-OV-3 ovarian
MDA-N = system: MDA-N
KM12 colon = system: KM12 colon
A549 NSCLC = system: A549 NSCLC
HS 578T breast = system: HS 578T breast
DU-145 prostate = system: DU-145 prostate
NCI-H226 lung = system: NCI-H226 lung
SK-MEL-28 melanoma = system: SK-MEL-28 melanoma
MDA-MB-231 breast = system: MDA-MB-231 breast
RPMI-8226 leukemia = system: RPMI-8226 leukemia
LOX IMVI melanoma = system: LOX IMVI melanoma
SNB-19 CNS = system: SNB-19 CNS
CCRF-CEM leukemia = system: CCRF-CEM leukemia
SR leukemia = system: SR leukemia
HCT-15 colon = system: HCT-15 colon
TK-10 renal = system: TK-10 renal
UO-31 renal = system: UO-31 renal
OVCAR-4 ovarian = system: OVCAR-4 ovarian
OVCAR-5 ovarian = system: OVCAR-5 ovarian
NCI-H522 lung = system: NCI-H522 lung
U251 CNS = system: U251 CNS
ACHN renal = system: ACHN renal
RXF 393 renal = system: RXF 393 renal
M14 melanoma = system: M14 melanoma
OVCAR-3 ovarian = system: OVCAR-3 ovarian
MCF7 breast = system: MCF7 breast

Compound N=C(N)SCc1ccc(N=C=S)cc1 has a TGI (UACC-62 melanoma) of 23.7 µM, a TGI (SF-539 CNS) of 27.3 µM and a TGI (T-47D breast) of 34.9 µM. The TGI (K-562 leukemia) was 44 µM, the TGI (SK-MEL-2 melanoma) was 23 µM and the TGI (HT29 colon) was 40.3 µM. It also gave a TGI (786-0 renal) of 26.7 µM, a TGI (CAKI-1 renal) of 25.4 µM and a TGI (SF-295 CNS) of 31.2 µM. It also gave a TGI (SW-620 colon) of 29.1 µM, a TGI (IGROV1 ovarian) of 26.7 µM and a TGI (MDA-MB-435) of 26 µM. It also gave a TGI (NCI/ADR-RES ovarian) of 43 µM, a TGI (SK-MEL-5 melanoma) of 27.2 µM and a TGI (PC-3 prostate) of 30.1 µM. For the same compound, the TGI (MOLT-4 leukemia) was > 100 µM, the TGI (EKVX NSCLC) was 35.5 µM and the TGI (HCT-116 colon) was 27.2 µM. It also gave a TGI (NCI-H460 lung) of 30.4 µM, a TGI (A498 renal) of 26.9 µM and a TGI (UACC-257 melanoma) of 25.8 µM. For the same compound, the TGI (OVCAR-8 ovarian) was 31.6 µM, the TGI (HL-60(TB) leukemia) was 35.9 µM and the TGI (HCC-2998 colon) was 30.4 µM. It also gave a TGI (HOP-62 NSCLC) of 32.5 µM, a TGI (MALME-3M melanoma) of 27.4 µM and a TGI (SN12C renal) of 28.5 µM. The TGI (SF-268 CNS) was 35.1 µM, the TGI (SNB-75 CNS) was 21.9 µM and the TGI (HOP-92 NSCLC) was 24.2 µM. It also gave a TGI (COLO 205 colon) of 28.2 µM, a TGI (NCI-H23 lung) of 27.5 µM and a TGI (SK-OV-3 ovarian) of 31.1 µM. It also gave a TGI (MDA-N) of 26.6 µM, a TGI (KM12 colon) of 27.6 µM and a TGI (A549 NSCLC) of 30.5 µM. It also gave a TGI (HS 578T breast) of 42.1 µM, a TGI (DU-145 prostate) of 29.5 µM and a TGI (NCI-H226 lung) of 34.6 µM. The TGI (SK-MEL-28 melanoma) was 28.7 µM, the TGI (MDA-MB-231 breast) was 20.1 µM and the TGI (RPMI-8226 leukemia) was > 100 µM. For the same compound, the TGI (LOX IMVI melanoma) was 28 µM, the TGI (SNB-19 CNS) was 26.7 µM and the TGI (CCRF-CEM leukemia) was > 100 µM. The TGI (SR leukemia) was > 100 µM, the TGI (HCT-15 colon) was 24.6 µM and the TGI (TK-10 renal) was 28.1 µM. The TGI (UO-31 renal) was 25 µM, the TGI (OVCAR-4 ovarian) was 27.4 µM and the TGI (OVCAR-5 ovarian) was 27.6 µM. For the same compound, the TGI (NCI-H522 lung) was 21.6 µM, the TGI (U251 CNS) was 29 µM and the TGI (ACHN renal) was 26.1 µM. It also gave a TGI (RXF 393 renal) of 17.8 µM.
With CS/C=C\C(=O)O[C@H]1C[C@@H]2[C@@H](O)c3occ(C)c3C[C@]2(C)[C@@H](C)C1 the TGI (UACC-62 melanoma) was 37.9 µM, the TGI (SF-539 CNS) was 37.7 µM and the TGI (T-47D breast) was 76.9 µM. For the same compound, the TGI (K-562 leukemia) was 47 µM, the TGI (HT29 colon) was 51.8 µM and the TGI (786-0 renal) was 30.2 µM. The TGI (CAKI-1 renal) was > 100 µM, the TGI (SF-295 CNS) was 77 µM and the TGI (SW-620 colon) was > 100 µM. The TGI (IGROV1 ovarian) was 40.3 µM, the TGI (MDA-MB-435) was 43.6 µM and the TGI (NCI/ADR-RES ovarian) was 42.3 µM. For the same compound, the TGI (SK-MEL-5 melanoma) was 28.2 µM, the TGI (PC-3 prostate) was > 100 µM and the TGI (MOLT-4 leukemia) was 56.3 µM. For the same compound, the TGI (EKVX NSCLC) was > 100 µM, the TGI (HCT-116 colon) was 31.4 µM and the TGI (NCI-H460 lung) was 60.7 µM. It also gave a TGI (M14 melanoma) of 38.5 µM, a TGI (UACC-257 melanoma) of 30.5 µM and a TGI (OVCAR-8 ovarian) of 50.4 µM. For the same compound, the TGI (HL-60(TB) leukemia) was 43.8 µM, the TGI (HCC-2998 colon) was 85.7 µM and the TGI (HOP-62 NSCLC) was 40.9 µM. The TGI (MALME-3M melanoma) was 35.6 µM, the TGI (SN12C renal) was 30.2 µM and the TGI (OVCAR-3 ovarian) was 31 µM. The TGI (SF-268 CNS) was 82.3 µM, the TGI (HOP-92 NSCLC) was 65.6 µM and the TGI (COLO 205 colon) was 35.6 µM. For the same compound, the TGI (NCI-H23 lung) was 85.8 µM, the TGI (SK-OV-3 ovarian) was > 100 µM and the TGI (MDA-N) was 47.2 µM. The TGI (KM12 colon) was > 100 µM, the TGI (HS 578T breast) was 71.5 µM and the TGI (DU-145 prostate) was 90.3 µM. It also gave a TGI (NCI-H226 lung) of 28.7 µM, a TGI (SK-MEL-28 melanoma) of 35.9 µM and a TGI (MDA-MB-231 breast) of 41.7 µM. For the same compound, the TGI (RPMI-8226 leukemia) was 79.9 µM, the TGI (LOX IMVI melanoma) was 32.8 µM and the TGI (SNB-19 CNS) was > 100 µM. For the same compound, the TGI (CCRF-CEM leukemia) was > 100 µM, the TGI (SR leukemia) was 99.4 µM and the TGI (HCT-15 colon) was 95.1 µM. For the same compound, the TGI (TK-10 renal) was > 100 µM, the TGI (OVCAR-4 ovarian) was 51.6 µM and the TGI (OVCAR-5 ovarian) was > 100 µM. For the same compound, the TGI (MCF7 breast) was 57.4 µM, the TGI (NCI-H522 lung) was 71.7 µM and the TGI (U251 CNS) was 7.93 µM. For the same compound, the TGI (ACHN renal) was 63.2 µM and the TGI (RXF 393 renal) was 47.2 µM.
